PubChem BioAssay AID1963425 (Molecular Pharmacology Branch, DTP, NCI, 2024)
Values belong to the molecule of their own block, whether it stands above or below them.

Tested on: 323965-272-R-J2-PDC complex spheroid growth, % test/control
Assay: Anticancer human tumor 323965-272-R-J2-PDC patient-derived pancreatic carcinoma cell line growth inhibition [Asc]
Settings: for IC50: curve of first compound; for viability, T/C: stronger effect = lower value
Method: Multicellular complex tumor spheroid response to apoptosis pathway targeting inhibitors Alrizomadlin, Pelcitoclax, and Dasminapant in combination with a variety of drugs and investigational agents in selected tumor cell lines
The MDM2 inhibitor alrizomadlin, the Bcl-2/Bcl-xL inhibitor pelcitoclax, and the IAPs inhibitor dasminapant were evaluated both individually and in combination with standard of care and investigational anticancer small molecules within a complex spheroid model of solid tumors. . Complex spheroids include a stromal component modeled by human endothelial cells (HUVEC) and fibroblasts modeled by human mesenchymal stem cells (MSCs). The concentration ranges selected for each drug and investigational agent were based upon clinically achievable concentrations if the clinical Cmax of the agent was known.
Compounds. The drugs and investigational agents: alrizomadlin (APG-115; NSC831270), pelcitoclax (APG-1252; NSC835773), dasminapant (APG-1387;NSC834197), TAK-243 (NSC785004), copanlisib (NSC809693), olaparib (NSC753686), talazoparib (NSC767125), cobimetinib (NSC 768068), eltanexor (KPT-8602, NSC 794443), abemaciclib (NSC 768073), sotorasib (NSC818433), adagrasib (NSC 831453), MRTX-1133 (NSC 836407), Iadademestat (ORY1001, NSC 806812), and RMC-4630 (NSC839698), were obtained from the NCI Developmental Therapeutics Program Chemical Repository. The FDA-approved anticancer drug set is available from the Developmental Therapeutics Program at https://dtp.cancer.gov/organization/dscb/obtaining/available plates.htm. […] The stock solutions were prepared in dimethyl sulfoxide (DMSO, Sigma-Aldrich, St. Louis, MO, cat. D2650) at 800-fold the tested concentration and stored at -70 degrees C prior to their use. All drugs and investigational agents were tested over a range starting from a high concentration at or near the clinical Cmax and decreasing in half-log increments. If the clinical Cmax for an agent had not been determined, the highest concentration tested was 10 microM.
The patient-derived cancer (PDC) cell lines include five colon adenocarcinomas: 186277-243-T-J2-PDC, 616215-338-R-J1-PDC, 439559-082-T-J2-PDC, 463943-066-T-J2-PDC, and 519858-162-T-J1-PDC; three pancreatic carcinomas: 323965-272-R-J2-PDC, 521955-158-R6-J3-PDC, and 521955-158-R2-J5-PDC; two uterine sarcomas: 327498-152-R-J2-PDC and 993429-296-R-J1-PDC; two rhabdomyosarcomas: 755483-174-R-J1-PDC and 772245-204-R-J1-PDC; two soft tissue sarcomas: 126254-015-R-J1-PDC and 494315-158-R-J1-PDC; two malignant fibrous histiocytomas: 317291-083-R-J1-PDC and 596521-263-R-J1-PDC; two breast carcinomas: 171881-019-R-J1-PDC and 885512-296-R-J2-PDC; and one ovarian carcinoma: 6556581-035-R-J-PDC were obtained from the NCI PDMR, (https://pdmr.cancer.gov). The established cell lines HSSY-2 synovial sarcoma (RRID:CVCL 8719), SYO-1 synovial sarcoma (RRID:CVCL_7146), MPNST malignant peripheral neural sheath tumor were obtained from the Sloan Kettering Institute. The following established cell lines were purchased from the American Type Culture Collection (ATCC, Manassas, VA), Sor the received from the NCI repository:, PANC-1 pancreatic carcinoma (CRL-1469, RRID:CVCL_0480), OVCAR-5 ovarian carcinoma (RRID:CVCL_1628), OVCAR-8 ovarian carcinoma (RRID:CVCL_1629), , MCF-7 breast carcinoma (CRL-12584, RRID:CVCL_0031), MDA-MB-231 breast carcinoma (CRL-12532, RRID:CVCL_0062), NCI-H1876 small cell lung carcinoma (CRL-5902, RRID:CVCL_1503), NCI-H510A small cell lung carcinoma (HTB-184, RRID:CVCL_1565), NCI-H1417 (CRL-5869, RRID:CVCL_1469), and NCI-H196 small cell lung carcinoma (CRL-5823, RRID:CVCL_1509). Dr. Peter Houghton (Greehey Children's Cancer Research Institute, University of Texas Health Science Center, San Antonio, TX) provided Rh-18 rhabdomyosarcoma (RRID:CVCL_1659). Pooled donor human umbilical vein endothelial cells (HUVEC, Lonza, cat. CC-2519) and human mesenchymal stem cells (hMSC, Lonza, cat. PT-2501) were purchased from Lonza (Walkersville, MD).
Cell Culture. […]

[1] = second compound 0.00949 µM, first compound 0.0316 µM
[2] = second compound 0.00949 µM, first compound 0.1 µM
[3] = second compound 0.03 µM, first compound 0.0316 µM
[4] = second compound 0.03 µM, first compound 0.1 µM
[5] = second compound 0.0949 µM, first compound 0.0316 µM
[6] = second compound 0.0949 µM, first compound 0.1 µM
[7] = second compound 0.3 µM, first compound 0.0316 µM
[8] = second compound 0.3 µM, first compound 0.1 µM
[9] = second compound 0.949 µM, first compound 0.0316 µM
[10] = second compound 0.949 µM, first compound 0.1 µM
[11] = second compound 3 µM, first compound 0.0316 µM
[12] = second compound 3 µM, first compound 0.1 µM
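Also: compound exposure lasted 7 days starting three days after spheroid seeding.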
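For viability, T/C in this document: 100% = DMSO vehicle control wells with viability set relative to vehicle.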

- IC50 (second compound 0.00949 µM): > 0.1 µM
- IC50 (second compound 0.03 µM): > 0.1 µM
- IC50 (second compound 0.0949 µM): > 0.1 µM
- IC50 (second compound 0.3 µM): > 0.1 µM
- IC50 (second compound 0.949 µM): > 0.1 µM
- IC50 (second compound 3 µM): > 0.1 µM
SMILES: Cn1ncnc1[C@H]1c2n[nH]c(=O)c3cc(F)cc(c23)N[C@@H]1c1ccc(F)cc1 + CCN1C(C(=O)NC23CCC(C(=O)O)(CC2)CC3)C(c2cccc(Cl)c2F)C2(C(=O)Nc3cc(Cl)ccc32)C12CCCCC2
- viability, T/C (second compound 0.00949 µM, first compound 0.000316 µM): 114%
- viability, T/C (second compound 0.00949 µM, first compound 0.001 µM): 104%
- viability, T/C (second compound 0.00949 µM, first compound 0.00316 µM): 108%
- viability, T/C (second compound 0.00949 µM, first compound 0.01 µM): 113%
- viability, T/C [1]: 112%
- viability, T/C [2]: 98.3%
- viability, T/C (second compound 0.03 µM, first compound 0.000316 µM): 124%
- viability, T/C (second compound 0.03 µM, first compound 0.001 µM): 116%
- viability, T/C (second compound 0.03 µM, first compound 0.00316 µM): 122%
- viability, T/C (second compound 0.03 µM, first compound 0.01 µM): 105%
- viability, T/C [3]: 116%
- viability, T/C [4]: 108%
- viability, T/C (second compound 0.0949 µM, first compound 0.000316 µM): 123%
- viability, T/C (second compound 0.0949 µM, first compound 0.001 µM): 116%
- viability, T/C (second compound 0.0949 µM, first compound 0.00316 µM): 104%
- viability, T/C (second compound 0.0949 µM, first compound 0.01 µM): 96.6%
- viability, T/C [5]: 103%
- viability, T/C [6]: 102%
- viability, T/C (second compound 0.3 µM, first compound 0.000316 µM): 115%
- viability, T/C (second compound 0.3 µM, first compound 0.001 µM): 118%
- viability, T/C (second compound 0.3 µM, first compound 0.00316 µM): 125%
- viability, T/C (second compound 0.3 µM, first compound 0.01 µM): 108%
- viability, T/C [7]: 114%
- viability, T/C [8]: 77.7%
- viability, T/C (second compound 0.949 µM, first compound 0.000316 µM): 118%
- viability, T/C (second compound 0.949 µM, first compound 0.001 µM): 114%
- viability, T/C (second compound 0.949 µM, first compound 0.00316 µM): 110%
- viability, T/C (second compound 0.949 µM, first compound 0.01 µM): 113%
- viability, T/C [9]: 117%
- viability, T/C [10]: 93.1%
- viability, T/C (second compound 3 µM, first compound 0.000316 µM): 118%
- viability, T/C (second compound 3 µM, first compound 0.001 µM): 109%
- viability, T/C (second compound 3 µM, first compound 0.00316 µM): 96%
- viability, T/C (second compound 3 µM, first compound 0.01 µM): 105%
- viability, T/C [11]: 96.9%
- viability, T/C [12]: 85.8%

- IC50 (second compound 0.00949 µM): > 10 µM
- IC50 (second compound 0.03 µM): > 10 µM
- IC50 (second compound 0.0949 µM): > 10 µM
- IC50 (second compound 0.3 µM): > 10 µM
- IC50 (second compound 0.949 µM): > 10 µM
- IC50 (second compound 3 µM): > 10 µM
SMILES: O=C(c1cc(Cc2n[nH]c(=O)c3ccccc23)ccc1F)N1CCN(C(=O)C2CC2)CC1 + CCN1C(C(=O)NC23CCC(C(=O)O)(CC2)CC3)C(c2cccc(Cl)c2F)C2(C(=O)Nc3cc(Cl)ccc32)C12CCCCC2
- viability, T/C [1]: 106%
- viability, T/C [2]: 107%
- viability, T/C (second compound 0.00949 µM, first compound 0.316 µM): 113%
- viability, T/C (second compound 0.00949 µM, first compound 1 µM): 110%
- viability, T/C (second compound 0.00949 µM, first compound 3.16 µM): 110%
- viability, T/C (second compound 0.00949 µM, first compound 10 µM): 91.5%
- viability, T/C [3]: 103%
- viability, T/C [4]: 111%
- viability, T/C (second compound 0.03 µM, first compound 0.316 µM): 106%
- viability, T/C (second compound 0.03 µM, first compound 1 µM): 106%
- viability, T/C (second compound 0.03 µM, first compound 3.16 µM): 107%
- viability, T/C (second compound 0.03 µM, first compound 10 µM): 95.8%
- viability, T/C [5]: 113%
- viability, T/C [6]: 107%
- viability, T/C (second compound 0.0949 µM, first compound 0.316 µM): 111%
- viability, T/C (second compound 0.0949 µM, first compound 1 µM): 108%
- viability, T/C (second compound 0.0949 µM, first compound 3.16 µM): 116%
- viability, T/C (second compound 0.0949 µM, first compound 10 µM): 100%
- viability, T/C [7]: 116%
- viability, T/C [8]: 107%
- viability, T/C (second compound 0.3 µM, first compound 0.316 µM): 117%
- viability, T/C (second compound 0.3 µM, first compound 1 µM): 117%
- viability, T/C (second compound 0.3 µM, first compound 3.16 µM): 103%
- viability, T/C (second compound 0.3 µM, first compound 10 µM): 97.5%
- viability, T/C [9]: 112%
- viability, T/C [10]: 106%
- viability, T/C (second compound 0.949 µM, first compound 0.316 µM): 122%
- viability, T/C (second compound 0.949 µM, first compound 1 µM): 95.4%
- viability, T/C (second compound 0.949 µM, first compound 3.16 µM): 109%
- viability, T/C (second compound 0.949 µM, first compound 10 µM): 85.1%
- viability, T/C [11]: 102%
- viability, T/C [12]: 105%
- viability, T/C (second compound 3 µM, first compound 0.316 µM): 107%
- viability, T/C (second compound 3 µM, first compound 1 µM): 105%
- viability, T/C (second compound 3 µM, first compound 3.16 µM): 92.4%
- viability, T/C (second compound 3 µM, first compound 10 µM): 93.3%
